Our source for the IC50 and fold induction values is patent US11464802B2, “3-substituted piperidine compounds for Cbl-b inhibition, and use thereof” (Nurix Therapeutics, Inc., priority 2019, dated 2022).

One experiment deals with Cbl-b (Homo sapiens (Human), UniProt Q13191). Kind of experiment: Cbl-b displacement assay (Cbl-b inhibition assay), TR-FRET probe displacement, Biological Example 1. The format is binding. On the procedure: Candidate compounds were evaluated for their ability to bind and inhibit Cbl-b, an E3 ubiquitin-protein ligase, as evidenced by their ability to displace a fluorophore-labeled probe (Example 46) bound to Cbl-b.
The ability of candidate compounds to displace a known inhibitor and thereby inhibit Cbl-b activity was measured by monitoring the interaction of Cbl-b with a fluorophore-labeled probe in the presence of the candidate compound. A truncated variant of Cbl-b (UniProt number Q13191; SEQ ID NO:1) containing an Avitag at its N-terminus was co-expressed with BirA biotin ligase and purified using a standard protocol (see Dou et al., Nature Structural and Molecular Biology 8: 982-987, 2013; Avidity LLC).
Fluorescently-labeled inhibitor probe was synthesized and tagged with BODIPY FL (Example 46). Cbl-b displacement assays were performed in a 384-well plate at room temperature in a 10 μL reaction volume by pre-incubating 0.5 nM Cbl-b or 0.125 nM Cbl-b (final concentration, indicated as “High” and “Low”, respectively) in an assay buffer containing 20 mM HEPES pH 7.5, 150 mM NaCl, 0.01% Triton X-100, 0.01% BSA, and 0.5 mM TCEP in the presence of a candidate compound in 1% DMSO (final concentration) for 1 hour. After incubation in the presence of the candidate compound, the plate was incubated for an additional 1 hour in the presence of an approximate EC40 binding saturation consisting of 150 nM fluorescently-labeled inhibitor probe and 2 nM Streptavidin-Terbium (Cisbio) (final concentrations). Following the 1 hour incubation, the plates were read for TR-FRET signal at 520/620 nM using an Envision plate reader (Perkin Elmer).

Experiment [1] concerns primary human total T-cells. Kind of experiment: Primary human total T-cell activation: IL-2 secretion, Biological Example 2. The experiment is classed as cell-based. To be noted: 48 hours, fold change over baseline; for fold induction at 0.3 µM: inhibitor 0.3 μM; for fold induction at 1 µM: inhibitor 1 μM; for fold induction at 3 µM: inhibitor 3 μM.
Experiment [2] relates to primary human total T-cells. Description: Primary human total T-cell activation: CD25 surface staining, Biological Example 2. The format is cell-based. To be noted: 48 hours, fold change over baseline; for fold induction at 0.3 µM: inhibitor 0.3 μM; for fold induction at 1 µM: inhibitor 1 μM; for fold induction at 3 µM: inhibitor 3 μM.
The mark [3] stands for this setting: 0.125 nM Cbl-b final concentration (Low), read-out: Cbl-b activity IC50 (Low).
[4] abbreviates: Cbl-b concentration (High or Low) not given, read-out: IC50 values in the Cbl-b inhibition assay of Biological Example 1.
Setting [5] is: anti-CD3/anti-CD28 co-stimulation.
The mark [6] stands for this setting: anti-CD3/anti-CD28 co-stimulation, read-out: IL-2 secretion CD3/CD28 1 μM.
Setting [7] is: anti-CD3 alone, read-out: IL-2 secretion CD3 1 μM.
[8] abbreviates: anti-CD3/anti-CD28 co-stimulation, read-out: CD25 staining CD3/CD28 1 μM.
The mark [9] stands for this setting: anti-CD3 alone, read-out: CD25 staining CD3 1 μM.
[10] abbreviates: 0.5 nM Cbl-b final concentration (High), read-out: Cbl-b activity IC50 (High).

Read-outs that look alike come from different tables or passages of the source. A value given as a limit tells only on which side of the number the result lay.

Cbl-b, sequence (Q13191 36-427): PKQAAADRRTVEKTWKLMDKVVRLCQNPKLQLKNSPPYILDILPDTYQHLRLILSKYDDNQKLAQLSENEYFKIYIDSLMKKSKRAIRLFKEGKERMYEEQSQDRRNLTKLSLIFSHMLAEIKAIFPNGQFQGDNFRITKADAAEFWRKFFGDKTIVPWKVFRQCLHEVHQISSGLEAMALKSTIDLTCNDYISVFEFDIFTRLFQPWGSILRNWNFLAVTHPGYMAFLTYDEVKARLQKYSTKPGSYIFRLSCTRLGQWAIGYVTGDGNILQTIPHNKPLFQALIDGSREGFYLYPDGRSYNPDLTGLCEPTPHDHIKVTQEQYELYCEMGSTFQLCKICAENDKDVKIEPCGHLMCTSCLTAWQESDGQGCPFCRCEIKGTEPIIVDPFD

For `C[C@H]1C[C@H](CO)CN(Cc2cc3c(c(C(F)(F)F)c2)CN(c2cccc(C4(Cc5nncn5C)COC4)c2)C3=O)C1` (relative stereo) [Compound 22, trans-6-{[3-(hydroxymethyl)-5-methylpiperidin-1-yl]methyl}-2-(3-{3-[(4-methyl-1,2,4-triazol-3-yl)methyl]oxetan-3-yl}phenyl)-4-(trifluoromethyl)-3H-isoindol-1-one], the half-maximal inhibitory concentration (IC50) at Cbl-b (setting [3]) and at Cbl-b (setting [4]) was under 1 nM each time. Besides, the fold induction at 0.3 µM was over 15 in experiment [1] (setting [5]) and over 1.39 in experiment [2] (setting [5]). Besides, the fold induction at 1 µM in experiment [1] (setting [6]) is over 15; in experiment [1] (setting [7]), over 0.66; in experiment [2] (setting [8]) it was over 1.39; in experiment [2] (setting [9]) it was under 1.04. The fold induction at 3 µM is over 0.66 in experiment [1] (anti-CD3 alone) and under 1.04 in experiment [2] (anti-CD3 alone).
Take `Cn1cnnc1CC1(c2cccc(N3Cc4c(cc(CN5CCC(F)(F)[C@@]6(CCOC6)C5)cc4C(F)(F)F)C3=O)c2)COC1` [Compound 14, (S)-6-((10,10-difluoro-2-oxa-7-azaspiro[4.5]decan-7-yl)methyl)-2-(3-(3-((4-methyl-4H-1,2,4-triazol-3-yl)methyl)oxetan-3-yl)phenyl)-4-(trifluoromethyl)isoindolin-1-one]: the concentration for half-maximal inhibition (IC50) on Cbl-b (setting [10]) was in the range of 1 to 5 nM. The figures for the fold induction at 0.3 µM in experiment [1] (setting [5]) and in experiment [2] (setting [5]) were under 10 and under 1.24, respectively. Moreover, the fold induction at 1 µM in experiment [1] (setting [6]) is 11 to 15; in experiment [1] (setting [7]) it was 0.34 to 0.66; in experiment [2] (setting [8]), under 1.24; in experiment [2] (setting [9]), 1.05 to 1.14. For the same compound, the fold induction at 3 µM was 0.34 to 0.66 in experiment [1] (anti-CD3 alone) and under 1.04 in experiment [2] (anti-CD3 alone).
For `CCNc1cc(C2(Cc3nncn3C)COC2)cc(N2Cc3c(cc(CN4CCC(F)(F)[C@H](C)C4)cc3C(F)(F)F)C2=O)n1` [Compound 27, (R)-6-((4,4-difluoro-3-methylpiperidin-1-yl)methyl)-2-(6-(ethylamino)-4-(3-((4-methyl-4H-1,2,4-triazol-3-yl)methyl)oxetan-3-yl)pyridin-2-yl)-4-(trifluoromethyl)iso indolin-1-one], the IC50 at Cbl-b (setting [10]) and at Cbl-b (setting [4]) was 5.1 to 100 nM each time. Also, the fold induction at 0.3 µM was over 15 in experiment [1] (setting [5]) and under 1.24 in experiment [2] (setting [5]). The fold induction at 1 µM in experiment [1] (setting [6]) is over 15; in experiment [1] (setting [7]), over 0.66; in experiment [2] (setting [8]), under 1.24; in experiment [2] (setting [9]) it was under 1.04. Also, the fold induction at 3 µM in experiment [1] (anti-CD3 alone) was over 0.66; in experiment [2] (anti-CD3 alone), under 1.04.
For `Cn1cnnc1CC1(c2cccc(N3Cc4c(cc(CN5CCC(F)(F)[C@]6(CCOC6)C5)cc4C(F)(F)F)C3=O)c2)COC1` [Compound 13, (R)-6-((10,10-difluoro-2-oxa-7-azaspiro[4.5]decan-7-yl)methyl)-2-(3-(3-((4-methyl-4H-1,2,4-triazol-3-yl)methyl)oxetan-3-yl)phenyl)-4-(trifluoromethyl)isoindolin-1-one], the IC50 on Cbl-b (setting [10]) was in the range of 1 to 5 nM. The fold induction at 0.3 µM is 11 to 15 in experiment [1] (setting [5]) and under 1.24 in experiment [2] (setting [5]). Moreover, the fold induction at 1 µM in experiment [1] (setting [6]) was 11 to 15; in experiment [1] (setting [7]) it was 0.34 to 0.66; in experiment [2] (setting [8]), under 1.24; in experiment [2] (setting [9]) it was 1.05 to 1.14. Further, the values for the fold induction at 3 µM in experiment [1] (anti-CD3 alone) and in experiment [2] (anti-CD3 alone) were 0.34 to 0.66 and under 1.04, respectively.
Take `Cn1cnnc1CC1(c2cccc(N3Cc4c(cc(CN5CCC(F)(F)[C@@H](CO)C5)cc4C(F)(F)F)C3=O)c2)COC1` [Compound 16, (R)-6-((4,4-difluoro-3-(hydroxymethyl)piperidin-1-yl)methyl)-2-(3-(3-((4-methyl-4H-1,2,4-triazol-3-yl)methyl)oxetan-3-yl)phenyl)-4-(trifluoromethyl)isoindolin-1-one]: at Cbl-b (setting [10]), the IC50 fell in the range of 1 to 5 nM. The fold induction at 0.3 µM is under 10 in experiment [1] (setting [5]) and under 1.24 in experiment [2] (setting [5]). The fold induction at 1 µM in experiment [1] (setting [6]) was under 10; in experiment [1] (setting [7]), under 0.33; in experiment [2] (setting [8]) it was under 1.24; in experiment [2] (setting [9]), under 1.04. Besides, the fold induction at 3 µM in experiment [1] (anti-CD3 alone) was under 0.33; in experiment [2] (anti-CD3 alone), 1.05 to 1.14.
Consider `Cn1cnnc1CC1(c2cccc(N3Cc4c(cc(CN5CCC(F)(F)[C@@H](C#N)C5)cc4C(F)(F)F)C3=O)c2)COC1` [Compound 10, (R)-4,4-difluoro-1-((2-(3-(3-((4-methyl-4H-1,2,4-triazol-3-yl)methyl)oxetan-3-yl)phenyl)-3-oxo-7-(trifluoromethyl)isoindolin-5-yl)methyl)piperidine-3-carbonitrile], for which the IC50 at Cbl-b (setting [10]) and at Cbl-b (setting [4]) was under 1 nM each time. The fold induction at 0.3 µM in experiment [1] (setting [5]) was 11 to 15; in experiment [2] (setting [5]), 1.25 to 1.39. The fold induction at 1 µM was 11 to 15 in experiment [1] (setting [6]), under 0.33 in experiment [1] (setting [7]), 1.25 to 1.39 in experiment [2] (setting [8]) and 1.05 to 1.14 in experiment [2] (setting [9]). For the same compound, the fold induction at 3 µM is under 0.33 in experiment [1] (anti-CD3 alone) and 1.05 to 1.14 in experiment [2] (anti-CD3 alone).
On to `C[C@H]1CCCN(Cc2cc3c(c(C(F)(F)F)c2)CN(c2cc(C4(Cc5nncn5C)COC4)ccn2)C3=O)C1` [Compound 48, (S)-2-(4-(3-((4-methyl-4H-1,2,4-triazol-3-yl)methyl)oxetan-3-yl)pyridin-2-yl)-6-((3-methylpiperidin-1-yl)methyl)-4-(trifluoromethyl)isoindolin-1-one], for which the half-inhibitory concentration (IC50) on Cbl-b (setting [3]) and at Cbl-b (setting [4]) was 1 to 5 nM in each case. The fold induction at 0.3 µM in experiment [1] (setting [5]) is over 15; in experiment [2] (setting [5]), over 1.39. Moreover, the fold induction at 1 µM in experiment [1] (setting [6]) is over 15; in experiment [1] (setting [7]), over 0.66; in experiment [2] (setting [8]) it was over 1.39; in experiment [2] (setting [9]), over 1.14. Also, the values for the fold induction at 3 µM in experiment [1] (anti-CD3 alone) and in experiment [2] (anti-CD3 alone) were over 0.66 and over 1.14, respectively.
In the case of `C[C@H]1CCCN(Cc2cc3c(c(C(F)(F)F)c2)CN(c2cccc(C4(Cc5nncn5C(F)F)COC4)c2)C3=O)C1` [Compound 36, 2-[3-(3-{[4-(difluoromethyl)-1,2,4-triazol-3-yl]methyl}oxetan-3-yl)phenyl]-6-{[(3S)-3-methylpiperidin-1-yl]methyl}-4-(trifluoromethyl)-3H-isoindol-1-one], the IC50 on Cbl-b (setting [3]) and on Cbl-b (setting [4]) was under 1 nM in each case. Besides, the figures for the fold induction at 0.3 µM in experiment [1] (setting [5]) and in experiment [2] (setting [5]) were over 15 and over 1.39, respectively. Besides, the fold induction at 1 µM in experiment [1] (setting [6]) was over 15; in experiment [1] (setting [7]), over 0.66; in experiment [2] (setting [8]), over 1.39; in experiment [2] (setting [9]), over 1.14. Besides, the fold induction at 3 µM in experiment [1] (anti-CD3 alone) is over 0.66; in experiment [2] (anti-CD3 alone), over 1.14.
Turning to `CCOc1cc(C2(Cc3nncn3C)COC2)cc(N2Cc3c(cc(CN4CCC[C@H](C)C4)nc3C3CC3)C2=O)n1` [Compound 40, 4-cyclopropyl-2-(6-ethoxy-4-{3-[(4-methyl-1,2,4-triazol-3-yl)methyl]oxetan-3-yl}pyridin-2-yl)-6-{[(3S)-3-methylpiperidin-1-yl]methyl}-3H-pyrrolo[3,4-c]pyridin-1-one], the IC50 at Cbl-b (setting [3]) and on Cbl-b (setting [4]) was under 1 nM each time. The figures for the fold induction at 0.3 µM in experiment [1] (setting [5]) and in experiment [2] (setting [5]) were over 15 and over 1.39, respectively. Moreover, the fold induction at 1 µM in experiment [1] (setting [6]) is over 15; in experiment [1] (setting [7]), over 0.66; in experiment [2] (setting [8]) it was over 1.39; in experiment [2] (setting [9]), over 1.14. The results for the fold induction at 3 µM in experiment [1] (anti-CD3 alone) and in experiment [2] (anti-CD3 alone) were over 0.66 and over 1.14, respectively.
